Data published in patent US11000601B2, “Conjugated biological molecules, pharmaceutical compositions and methods” (OBI Pharma, Inc., priority 2016, dated 2021).
Values joined by “and” are separate entries in the source; they are usually repeats but may differ in a detail not shown here. Equal entries are not always repeated. Square brackets hold non-standard residues; d marks the D form. Peptide text beside a SMILES is read from it. * marks the point of attachment. Dolaproine = CO[C@@H]([C@@H]1CCCN1)[C@@H](C)C(=O)O; Dil = CC[C@H](C)[C@H](NC)[C@@H](CC(=O)O)OC; X1 = C[C@@H](N*)[C@@H](O)c1ccccc1; NMeV = CN[C@H](C(=O)O)C(C)C

System: MCF-7 (ATCC HTB-22) human breast adenocarcinoma
Assay: Xenograft tumor model of human breast adenocarcinoma MCF-7 in nude mice: tumor volume, T/C
Type: in vivo
Settings: for Tumor Volume, individual mouse: mice No. 1-6
Protocol: In a xenograft tumor model of human breast adenocarcinoma, MCF-7 (ATCC HTB-22) cells were subcutaneously (SC) implanted (2.0×10^7 cells in 1:1 matrigel/media mixture at 0.2 mL/mouse) into the right flank of female athymic (nu/nu) nude mice. Supplemental injections of estradiol cyclopentyl propionate (100 μg/mouse) were administered subcutaneously between the scapulae twice weekly, from one week prior to cell implantation to study completion. Tumor-implanted mice were divided into eleven treatment groups, each group containing six animals, and test agent administrations were initiated one day after cell implantation (denoted as Day 1). 3.1 Test Substances and Dosing Pattern
Two control groups received intravenous injections of vehicle (25 mM Sodium Citrate, pH 6.5+100 mM NaCl) once weekly for either six weeks (group 1) or two weeks (group 2).
Human breast adenocarcinoma tumor cell line, MCF-7 (ATCC HTB-22, breast adenocarcinoma), was provided by the Sponsor. The tumor cells were prepared and cultured by the Sponsor (1×10^8 cells/mL), and 0.2 mL MCF-7 tumor cell inoculum containing 2×10^7 cells (mixture of matrigel and medium; 1:1) was implanted subcutaneously in the right flank of each mouse.
Female (nu/nu) nude mice aged 6-7 weeks obtained from BioLasco Taiwan (under Charles River Laboratories Licensee) were used. The animals were housed in individually ventilated cages (IVG, 36 Mini Isolator System). The allocation for 3-5 animals was 27×20×14 in cm. All animals were maintained in a hygienic environment under controlled temperature (20-24° C.) and humidity (30-70%) with 12-hour light/dark cycle. Free access to standard lab diet (Oriental Yeast Co., Ltd., Japan) and autoclaved tap water were granted. All aspects of this work including housing, experimentation, and animal disposal were performed in general accordance with the “Guide for the Care and Use of Laboratory Animals: Eighth Edition” (National Academies Press, Washington, D.C., 2011) in our AAALAC-accredited laboratory animal facility. In addition, the animal care and use protocol was reviewed and approved by the IACUC at Eurofins Panlabs Taiwan, Ltd.
The tumor volumes, body weights, mortality, and signs of overt toxicity were monitored and recorded twice weekly for 77 days. Tumor volume (mm^3) was calculated according to the formula for a prolate ellipsoid: length (mm)×[width (mm)]^2×0.5. Tumor growth inhibition was calculated as T/C (treatment/control)×100%. A T/C value≤42% was considered significant anti-tumor activity. Two-way ANOVA followed by Bonferroni test was used to ascertain the statistical significance of groups compared to respective vehicle control (*p<0.05).

[1] = 0.057 mg/kg × 6, IV, once weekly, Day 1
[2] = 0.057 mg/kg × 6, IV, once weekly, Day 5
[3] = 0.057 mg/kg × 6, IV, once weekly, Day 8
[4] = 0.057 mg/kg × 6, IV, once weekly, Day 12
[5] = 0.057 mg/kg × 6, IV, once weekly, Day 15
[6] = 0.057 mg/kg × 6, IV, once weekly, Day 19
[7] = 0.057 mg/kg × 6, IV, once weekly, Day 22
[8] = 0.057 mg/kg × 6, IV, once weekly, Day 26
[9] = 0.057 mg/kg × 6 IV once weekly, Day 29
[10] = 0.057 mg/kg × 6 IV once weekly, Day 33
[11] = 0.057 mg/kg × 6 IV once weekly, Day 36
[12] = 0.057 mg/kg × 6 IV once weekly, Day 40
[13] = 0.057 mg/kg × 6 IV once weekly, Day 43
[14] = 0.057 mg/kg × 6 IV once weekly, Day 46
[15] = 0.057 mg/kg × 6 IV once weekly, Day 49
[16] = Gr. 11, 0.057 mg/kg × 6, IV, once weekly, Day 53
[17] = Gr. 11, 0.057 mg/kg × 6, IV, once weekly, Day 56
[18] = Gr. 11, 0.057 mg/kg × 6, IV, once weekly, Day 60
[19] = Gr. 11, 0.057 mg/kg × 6, IV, once weekly, Day 63
[20] = Gr. 11, 0.057 mg/kg × 6, IV, once weekly, Day 67
[21] = Gr. 11, 0.057 mg/kg × 6, IV, once weekly, Day 70
[22] = Gr. 11, 0.057 mg/kg × 6, IV, once weekly, Day 74
[23] = Gr. 11, 0.057 mg/kg × 6, IV, once weekly, Day 77

## CC[C@H](C)[C@@H]([C@@H](CC(=O)N1CCC[C@H]1[C@H](OC)[C@@H](C)C(=O)N[C@H](C)[C@@H](O)c1ccccc1)OC)N(C)C(=O)[C@@H](NC(=O)[C@@H](NC)C(C)C)C(C)C [MMAE, monomethyl auristatin E] (H-[NMeV]V[Dil][Dolaproine]-X1)
0.057 mg/kg IV once weekly for six weeks, during and for a short time after the dosing phase
  anti-tumor activity (in words): modest-to-moderate anti-tumor activity
[1]
  % T/C: 101%
  Tumor Volume, Mean: 161 mm^3
  Tumor Volume, single mouse (No. 1-6): 141 mm^3 and 139 mm^3 and 162 mm^3 and 186 mm^3 and 152 mm^3 and 188 mm^3
[2]
  % T/C: 97%
  Tumor Volume, Mean: 119 mm^3
  Tumor Volume, single mouse (No. 1-6): 110 mm^3 and 123 mm^3 and 145 mm^3 and 104 mm^3 and 106 mm^3 and 128 mm^3
[3]
  % T/C: 96%
  Tumor Volume, Mean: 132 mm^3
  Tumor Volume, single mouse (No. 1-6): 121 mm^3 and 125 mm^3 and 139 mm^3 and 131 mm^3 (2×) and 146 mm^3
[4]
  % T/C: 71%
  Tumor Volume, Mean: 114 mm^3
  Tumor Volume, single mouse (No. 1-6): 101 mm^3 and 104 mm^3 and 133 mm^3 and 115 mm^3 and 103 mm^3 and 129 mm^3
[5]
  % T/C: 72%
  Tumor Volume, Mean: 116 mm^3
  Tumor Volume, single mouse (No. 1-6): 102 mm^3 and 101 mm^3 and 127 mm^3 and 105 mm^3 and 137 mm^3 and 121 mm^3
[6]
  % T/C: 64%
  Tumor Volume, Mean: 130 mm^3
  Tumor Volume, single mouse (No. 1-6): 137 mm^3 and 113 mm^3 and 125 mm^3 and 121 mm^3 and 148 mm^3 and 135 mm^3
[7]
  % T/C: 61%
  Tumor Volume, Mean: 140 mm^3
  Tumor Volume, single mouse (No. 1-6): 123 mm^3 and 137 mm^3 (2×) and 138 mm^3 and 164 mm^3 and 143 mm^3
[8]
  % T/C: 54%
  Tumor Volume, Mean: 143 mm^3
  Tumor Volume, single mouse (No. 1-6): 135 mm^3 and 127 mm^3 and 119 mm^3 and 154 mm^3 and 179 mm^3 and 144 mm^3
[9]
  % T/C: 54%
  Tumor Volume, individual mouse: 146 mm^3 and 131 mm^3 and 119 mm^3 and 156 mm^3 and 194 mm^3 and 160 mm^3
0.057 mg/kg × 6 IV once weekly, Day 29, group mean
  Tumor Volume, Mean: 151 mm^3
[10]
  % T/C: 55%
  Tumor Volume, individual mouse: 162 mm^3 and 152 mm^3 and 133 mm^3 and 168 mm^3 and 216 mm^3 and 177 mm^3
0.057 mg/kg × 6 IV once weekly, Day 33, group mean
  Tumor Volume, Mean: 168 mm^3
[11]
  % T/C: 59%
  Tumor Volume, individual mouse: 171 mm^3 and 154 mm^3 and 152 mm^3 and 201 mm^3 and 256 mm^3 and 218 mm^3
0.057 mg/kg × 6 IV once weekly, Day 36, group mean
  Tumor Volume, Mean: 192 mm^3
[12]
  % T/C: 61%
  Tumor Volume, individual mouse: 184 mm^3 and 186 mm^3 and 156 mm^3 and 223 mm^3 and 285 mm^3 and 226 mm^3
0.057 mg/kg × 6 IV once weekly, Day 40, group mean
  Tumor Volume, Mean: 210 mm^3
[13]
  % T/C: 63%
  Tumor Volume, individual mouse: 186 mm^3 (2×) and 239 mm^3 and 242 mm^3 and 296 mm^3 and 240 mm^3
0.057 mg/kg × 6 IV once weekly, Day 43, group mean
  Tumor Volume, Mean: 232 mm^3
[14]
  % T/C: 65%
  Tumor Volume, individual mouse: 204 mm^3 and 261 mm^3 and 222 mm^3 and 258 mm^3 and 332 mm^3 and 259 mm^3
0.057 mg/kg × 6 IV once weekly, Day 46, group mean
  Tumor Volume, Mean: 256 mm^3
[15]
  % T/C: 64%
  Tumor Volume, individual mouse: 210 mm^3 and 270 mm^3 and 235 mm^3 and 301 mm^3 and 351 mm^3 and 264 mm^3
0.057 mg/kg × 6 IV once weekly, Day 49, group mean
  Tumor Volume, Mean: 272 mm^3
[16]
  % T/C (tumor volume, treatment/control): 64%
  Tumor Volume, Mean: 290 mm^3
  Tumor Volume, individual animals No. 1-6: 216 mm^3 and 291 mm^3 and 268 mm^3 and 319 mm^3 and 373 mm^3 and 270 mm^3
[17]
  % T/C (tumor volume, treatment/control): 65%
  Tumor Volume, Mean: 323 mm^3
  Tumor Volume, individual animals No. 1-6: 305 mm^3 and 249 mm^3 and 325 mm^3 and 329 mm^3 and 399 mm^3 and 328 mm^3
[18]
  % T/C (tumor volume, treatment/control): 65%
  Tumor Volume, Mean: 357 mm^3
  Tumor Volume, individual animals No. 1-6: 312 mm^3 and 262 mm^3 and 383 mm^3 and 373 mm^3 and 453 mm^3 and 358 mm^3
[19]
  % T/C (tumor volume, treatment/control): 71%
  Tumor Volume, Mean: 421 mm^3
  Tumor Volume, individual animals No. 1-6: 286 mm^3 and 422 mm^3 and 494 mm^3 and 418 mm^3 and 496 mm^3 and 412 mm^3
[20]
  % T/C (tumor volume, treatment/control): 71%
  Tumor Volume, Mean: 469 mm^3
  Tumor Volume, individual animals No. 1-6: 307 mm^3 and 458 mm^3 and 598 mm^3 and 455 mm^3 and 505 mm^3 and 489 mm^3
[21]
  % T/C (tumor volume, treatment/control): 73%
  Tumor Volume, Mean: 512 mm^3
  Tumor Volume, individual animals No. 1-6: 333 mm^3 and 591 mm^3 and 603 mm^3 and 493 mm^3 and 523 mm^3 and 528 mm^3
[22]
  % T/C (tumor volume, treatment/control): 79%
  Tumor Volume, Mean: 584 mm^3
  Tumor Volume, individual animals No. 1-6: 365 mm^3 and 625 mm^3 and 681 mm^3 and 570 mm^3 and 568 mm^3 and 695 mm^3
[23]
  % T/C (tumor volume, treatment/control): 83%
  Tumor Volume, Mean: 736 mm^3
  Tumor Volume, individual animals No. 1-6: 410 mm^3 and 922 mm^3 and 760 mm^3 and 632 mm^3 and 807 mm^3 and 887 mm^3
